Measured values as given in patent US6914045B2, “Glycopeptide antibiotics” (Wyeth Holdings Corporation, priority 2001, dated 2005).
≈ marks a conversion by molar mass, not a printed value. Values belong to the molecule of their own block, whether it stands above or below them.

Tests used:
Assay in all cases: in vitro antibacterial evaluation, MIC by broth dilution
Format in all cases: cell-based
Streptococcus sp. = details: broth dilution, 18 hours at 35° C.
Experimental: (§1) Methods for in vitro Antibacterial Evaluation (Table 1)
(§2) The minimum inhibitory concentration (MIC), the lowest concentration of the antibiotic which inhibits growth of the test organism, is determined by the broth dilution method using Muller-Hinton II […] (Baltimore Biological Laboratories) following the recommendations of the National Committee for Clinical Laboratory Standards [Methods for dilution antimicrobial susceptibility tests for bacteria that grow aerobically, approved standard M7-A2, National Committee for Clinical Laboratory Standards, Villanova, Pa.].
(§3) An inoculum level of 5×10^5 CFU/mL, and a range of antibiotic concentrations (64-0.06 μg/mL) is used. […] The test organisms include a spectrum of Gram-positive bacteria comprised of Staphylococcus sp., Streptococcus sp. and Enterococcus sp. These organisms include recent clinical isolates that are resistant to methicillin, penicillin and/or vancomycin.

Enterococcus sp. = details: broth dilution, 18 hours at 35° C.
Experimental: as §1, §2, §3

Staphylococcus sp. = test system: Staphylococcus sp.
Experimental: as §1, §2, §3

Escherichia coli = details: 18 hours at 35° C.
Experimental: as §2, §3

[1] = strain ATCC 29213; broth dilution, 18 hours at 35° C.
[2] = strain GC 1131; broth dilution, 18 hours at 35° C.
[3] = broth dilution, 18 hours at 35° C.

MIC Streptococcus agalactiae (GC 4564) (Streptococcus sp.): >64 µg/mL
MIC Streptococcus pneumoniae (ATCC 6301) (Streptococcus sp.): 64 µg/mL (≈ 44.9 µM)
MIC Streptococcus pneumoniae (GC 1894) (Streptococcus sp.): 32 µg/mL (≈ 22.4 µM)
MIC Streptococcus pneumoniae (GC 4565) (Streptococcus sp.): >64 µg/mL
MIC Streptococcus pyogenes (GC 4563) (Streptococcus sp.): 64 µg/mL (≈ 44.9 µM)
MIC Streptococcus pneumoniae (ATCC 6301) (Streptococcus sp.; inoculum 5×10^5 CFU/mL, strain ATCC 6301): 64 µg/mL (≈ 44.9 µM)
MIC Streptococcus pneumoniae (GC 1894) (Streptococcus sp.; inoculum 5×10^5 CFU/mL, strain GC 1894): 32 µg/mL (≈ 22.4 µM)
MIC Streptococcus pyogenes (GC 4563) (Streptococcus sp.; inoculum 5×10^5 CFU/mL, strain GC 4563): 64 µg/mL (≈ 44.9 µM)
MIC Streptococcus agalactiae (GC 4564) (Streptococcus sp.; inoculum 5×10^5 CFU/mL, strain GC 4564): >64 µg/mL
MIC Streptococcus pneumoniae (GC 4565) (Streptococcus sp.; inoculum 5×10^5 CFU/mL, strain GC 4565): >64 µg/mL
MIC Enterococcus avium (GC 4558) (Enterococcus sp.): 64 µg/mL (≈ 44.9 µM)
MIC Enterococcus faecalis (ATCC 29212) (Enterococcus sp.): >64 µg/mL
MIC Enterococcus faecalis (GC 2242) (Enterococcus sp.): >64 µg/mL
MIC Enterococcus faecalis (GC 2691) (Enterococcus sp.): >64 µg/mL
MIC Enterococcus faecalis (GC 3059) (Enterococcus sp.): >64 µg/mL
MIC Enterococcus faecalis (GC 4552) (Enterococcus sp.): >64 µg/mL
MIC Enterococcus faecalis (GC 4553) (Enterococcus sp.): 64 µg/mL (≈ 44.9 µM)
MIC Enterococcus faecalis (GC 4554) (Enterococcus sp.): >64 µg/mL
MIC Enterococcus faecalis (GC 6189) (Enterococcus sp.): >64 µg/mL
MIC Enterococcus faecium (GC 2243) (Enterococcus sp.): >64 µg/mL
MIC Enterococcus faecium (GC 4556) (Enterococcus sp.): >64 µg/mL
MIC Enterococcus faecium (GC 4557) (Enterococcus sp.): 64 µg/mL (≈ 44.9 µM)
MIC Enterococcus faecalis (ATCC 29212) (Enterococcus sp.; inoculum 5×10^5 CFU/mL, strain ATCC 29212): >64 µg/mL
MIC Enterococcus faecalis (GC 2242) (Enterococcus sp.; inoculum 5×10^5 CFU/mL, strain GC 2242): >64 µg/mL
MIC Enterococcus faecium (GC 2243) (Enterococcus sp.; inoculum 5×10^5 CFU/mL, strain GC 2243): >64 µg/mL
MIC Enterococcus faecalis (GC 2691) (Enterococcus sp.; inoculum 5×10^5 CFU/mL, strain GC 2691): >64 µg/mL
MIC Enterococcus faecalis (GC 3059) (Enterococcus sp.; inoculum 5×10^5 CFU/mL, strain GC 3059): >64 µg/mL
MIC Enterococcus faecalis (GC 4552) (Enterococcus sp.; inoculum 5×10^5 CFU/mL, strain GC 4552): >64 µg/mL
MIC Enterococcus faecalis (GC 4553) (Enterococcus sp.; inoculum 5×10^5 CFU/mL, strain GC 4553): 64 µg/mL (≈ 44.9 µM)
MIC Enterococcus faecalis (GC 4554) (Enterococcus sp.; inoculum 5×10^5 CFU/mL, strain GC 4554): >64 µg/mL
MIC Enterococcus faecium (GC 4556) (Enterococcus sp.; inoculum 5×10^5 CFU/mL, strain GC 4556): >64 µg/mL
MIC Enterococcus faecium (GC 4557) (Enterococcus sp.; inoculum 5×10^5 CFU/mL, strain GC 4557): 64 µg/mL (≈ 44.9 µM)
MIC Enterococcus avium (GC 4558) (Enterococcus sp.; inoculum 5×10^5 CFU/mL, strain GC 4558): 64 µg/mL (≈ 44.9 µM)
MIC Enterococcus faecalis (GC 6189) (Enterococcus sp.; inoculum 5×10^5 CFU/mL, strain GC 6189): >64 µg/mL
MIC Staphylococcus aureus (ATCC 29213) (Staphylococcus sp.; [1]): >64 µg/mL
MIC Staphylococcus aureus (GC 1131) (Staphylococcus sp.; [2]): >64 µg/mL
MIC Staphylococcus aureus (GC 3051) (Staphylococcus sp.; strain GC 3051; broth dilution, 18 hours at 35° C.): 64 µg/mL (≈ 44.9 µM)
MIC Staphylococcus aureus (GC 3053) (Staphylococcus sp.; strain GC 3053; broth dilution, 18 hours at 35° C.): >64 µg/mL
MIC Staphylococcus aureus (GC 4541) (Staphylococcus sp.; strain GC 4541; broth dilution, 18 hours at 35° C.): 64 µg/mL (≈ 44.9 µM)
MIC Staphylococcus aureus (GC 4542) (Staphylococcus sp.; strain GC 4542; broth dilution, 18 hours at 35° C.): 64 µg/mL (≈ 44.9 µM)
MIC Staphylococcus aureus-SMITH (GC 4543) (Staphylococcus sp.; strain GC 4543; broth dilution, 18 hours at 35° C.): 64 µg/mL (≈ 44.9 µM)
MIC Staphylococcus aureus (GC 4544) (Staphylococcus sp.; strain GC 4544; broth dilution, 18 hours at 35° C.): 64 µg/mL (≈ 44.9 µM)
MIC Staphylococcus aureus (GC 4545) (Staphylococcus sp.; strain GC 4545; broth dilution, 18 hours at 35° C.): 64 µg/mL (≈ 44.9 µM)
MIC Coagulase Negative Staphylococcus (GC 4547) (Staphylococcus sp.; strain GC 4547; broth dilution, 18 hours at 35° C.): 64 µg/mL (≈ 44.9 µM)
MIC Coagulase Negative Staphylococcus (GC 4548) (Staphylococcus sp.; strain GC 4548; broth dilution, 18 hours at 35° C.): 64 µg/mL (≈ 44.9 µM)
MIC Coagulase Negative Staphylococcus (GC 4549) (Staphylococcus sp.; strain GC 4549; broth dilution, 18 hours at 35° C.): 64 µg/mL (≈ 44.9 µM)
MIC Coagulase Negative Staphylococcus (GC 4551) (Staphylococcus sp.; strain GC 4551; broth dilution, 18 hours at 35° C.): 64 µg/mL (≈ 44.9 µM)
MIC Escherichia coli (ATCC 25922) (Escherichia coli): >64 µg/mL
MIC Escherichia coli (GC 4559) (Escherichia coli): >64 µg/mL
MIC Escherichia coli (GC 4560) (Escherichia coli): 32 µg/mL (≈ 22.4 µM)
Structure (SMILES): N=C1NCC(C(O)C2NC(=O)C(CC3CCC(OC4OC(CO)C(OC5OC6COC7(OC6C(O)C5O)C5CC6CC(C5)CC7C6)C(O)C4O)CC3)NC(=O)C(CC3CCCCC3)NC(=O)CNC(=O)C(CO)NC(=O)C(C(O)C3CNC(=N)N3C3OC(CO)C(O)C(O)C3O)NC2=O)N1 (single isomer, unassigned) [Example 223]
MIC Staphylococcus haemolyticus (GC 4546) (Staphylococcus sp.; strain GC 4546; broth dilution, 18 hours at 35° C.): 64 µg/mL (≈ 44.9 µM)

MIC Enterococcus faecalis (ATCC 29212) (Enterococcus sp.; Enterococcus faecalis (ATCC 29212)): >64 µg/mL
MIC Enterococcus faecalis (GC 2242) (Enterococcus sp.; Enterococcus faecalis (GC 2242)): >64 µg/mL
MIC Enterococcus faecalis (GC 4552) (Enterococcus sp.; Enterococcus faecalis (GC 4552)): >64 µg/mL
MIC Enterococcus faecalis (ATCC 29212) (Enterococcus sp.): >64 µg/mL
MIC Enterococcus faecalis (GC 2242) (Enterococcus sp.): >64 µg/mL
MIC Enterococcus faecalis (GC 4552) (Enterococcus sp.): >64 µg/mL
MIC Coagulase Negative Staphylococcus (GC 4537) (Staphylococcus sp.; [3]): >64 µg/mL
MIC Coagulase Negative Staphylococcus (GC 4538) (Staphylococcus sp.; [3]): >64 µg/mL
MIC Coagulase Negative Staphylococcus (GC 4547) (Staphylococcus sp.; [3]): >64 µg/mL
MIC Coagulase Negative Staphylococcus (GC 4537) (Staphylococcus sp.; broth dilution, 18 hours at 35° C.; strain GC 4537): >64 µg/mL
MIC Coagulase Negative Staphylococcus (GC 4538) (Staphylococcus sp.; broth dilution, 18 hours at 35° C.; strain GC 4538): >64 µg/mL
MIC Coagulase Negative Staphylococcus (GC 4547) (Staphylococcus sp.; broth dilution, 18 hours at 35° C.; strain GC 4547): >64 µg/mL
MIC Staphylococcus aureus (ATCC 29213) (Staphylococcus sp.; [1]): >64 µg/mL
MIC Staphylococcus aureus (GC 1131) (Staphylococcus sp.; [2]): >64 µg/mL
MIC Staphylococcus aureus (GC 4535) (Staphylococcus sp.; strain GC 4535; broth dilution, 18 hours at 35° C.): >64 µg/mL
MIC Staphylococcus aureus-SMITH (GC 4536) (Staphylococcus sp.; strain GC 4536; broth dilution, 18 hours at 35° C.): >64 µg/mL
MIC Escherichia coli (GC 4559) (Escherichia coli): >64 µg/mL
MIC Escherichia coli (GC 4560) (Escherichia coli): 2 µg/mL (≈ 1.42 µM)
Structure (SMILES): CCCCCCC(=O)OCC1OC(N2C(=N)NCC2C(O)C2NC(=O)C(C(O)C3CNC(=N)N3)NC(=O)C(Cc3ccc(OC4OC(CO)C(OC5OC(CO)C(O)C(O)C5O)C(O)C4O)cc3)NC(=O)C(C(C)c3ccccc3)NC(=O)CNC(=O)C(CO)NC2=O)C(O)C(O)C1O (stereo not drawn) [Example 97, Cyclo[glycyl-β-methylphenylalanyl-O-(4-O-hexopyranosylhexolpyranosyl)tyrosyl-3-(2-iminoimidazolidin-4-yl)seryl-3-[3-(6-O-heptanoylhexopyranosyl)-2-iminoimidazolidin-4-yl]seryl-seryl]]
